# “Also recorded” adds a separate entry of the source. Like-named read-outs stand apart in the source and are kept apart here.
# How the values were obtained:
# [1] = system: HCVpp JFH1; genotype 2a; assay: HCVpp entry in primary human hepatocytes; assay type: cell-based, HCV; details: JFH1-derived HCVpp; inhibitor added 1 h prior to infection; FIG. 9B
# [2] = system: HCVpp (genotype 1b) bearing envelope glycoproteins from HCV strains VD, VH, VK, VN; assay: Entry of patient-derived HCVpp in primary human hepatocytes; assay type: cell-based; details: 10 μM, 1 h prior to infection, FIG. 10C
# [3] = system: subgenomic HCV JFH1 replicon; assay: HCV replication, subgenomic JFH1 replicon, Northern blot; assay type: cell-based; details: Huh7.5 cells electroporated with subgenomic JFH1 replicon RNA, 24 h incubation, FIG. 9C
# Description: HEK 293T, Huh7 and Huh7.5.1 cells used in the present study have previously been described (Bartosch, 2003; Barth, 2003; Zhong, 2005). Primary human hepatocytes were isolated and cultured as previously described (David, 1998, which is incorporated herein by reference in its entirety). Subgenomic HCV replicon JFH1-SGR used herein has also previously been described (Kato, 2005).
# A 9.7 kb fragment derived from plasmid […] (Wakita, 2005) digested with XbaI and EcoRI was labeled with α^32P-CTP using NEBlot kit (NEB, USA). Northern blotting was performed according to standard protocols (F. M. Ausubel et al., “Current Protocols in Molecular Biology”, John Wiley 1 Sons, Inc., 2007).
# Electroporation of RNA derived from plasmids pSGR-JFH1 was performed as previously described (Lan, 2008). Four hours after electroporation, cells were incubated with protein kinase inhibitors in cell culture supernatant for 24 hours. Total RNA was isolate and analyzed by Northern blot analysis of HCV RNA as described (Lohmann, 1999).
# [4] = system: HCVcc Luc-Jc1, genotype 2a/2a; assay: microbe, parasite or virus in culture; assay type: cell-based, HCV; details: for IC50: Hepatitis C virus, hepatocytes or hepatocyte-derived cell lines, FIG. 9, read-out: IC50, inhibition of HCV entry and infection
# [5] = system: HCVpp (genotype 1b) bearing envelope glycoproteins from HCV strains VD, VH, VK, VN; assay: Entry of patient-derived HCVpp in Huh7.5 cells; assay type: cell-based; details: 10 μM, 1 h prior to infection, FIG. 10B
# [6] = system: HCVcc JFH1; assay: HCVcc infection of Huh7.5.1 cells, luciferase reporter or RT-PCR of HCV RNA (Example 1); assay type: cell-based; details: 1 μM or 10 μM inhibitor, dose-dependent, FIG. 3
# Method: Bicistronic plasmid pFK-Luc-Jc1 (Koutsoudakis, 2006) encodes a luciferase reporter gene and a chimeric HCV genome designated Jc1 which consists of J6CF and JFH1 segments. In vitro HCV RNA synthesis and RNA transfection were carried out as previously described (Wakita, 2005). Culture supernatants from transfected cells were cleared and concentrated as previously described using an Amicon Ultra 15 (Millipore, USA) and used directly or were stored at 4° C. or −80° C. Viruses were titrered by using the limiting dilution assay on Huh7.5.1 cells with a few minor modifications and TCID50 values were calculated based on a method previously described (Lindenbach, 2005).
# All inhibitors used in this study were obtained from LC Laboratories (USA). Before use, they were dissolved in DMSO and diluted in Huh7.5.1 cell culture medium (Zhong, 2005). Following incubation, HCVpp entry and HCVcc infection were assessed by luciferase reporter gene expression or RT-PCR of HCV RNA in cells as previously reported (Pestka, 2007; Zeisel, 2007).
# [7] = system: HCVpp H77C, genotype 1a; assay: HCVpp entry in hepatoma cells, luciferase reporter (Example 1); assay type: cell-based, HCV; details: Huh7.5.1 cells, 1 μM or 10 μM inhibitor, 1 h prior to 3 h post-infection, FIG. 3
# [8] = system: primary human hepatocytes; assay: MTT cell viability, primary human hepatocytes; assay type: cell-based
# Method: Toxicity Assays. […] For siRNA experiments, MTT was added 3 days after transfection with siRNA for 5 hours. The final concentration of MTT was 0.6 mg/mL. […] 2.
# [9] = system: HCVpp; assay: HCVpp entry in primary human hepatocytes (Flavopiridol); details: HCVpp strain not stated
# [10] = system: Huh7.5 cells; assay: MTT cell viability, Huh7.5 cells; assay type: cell-based, human; details: 10 μM, FIG. 7C
# Method: (§1) Toxicity Assays. Cytotoxicity effects on cells were assessed in triplicates by analyzing the ability to metabolize 3-(4,5-dimethylthiazol-2-yl)-2,5-diphenyltetrazolium bromide (MTT) (Lan, 2008). For siRNA experiments, MTT was added 3 days after transfection with siRNA for 5 hours. The final concentration of MTT was 0.6 mg/mL. Formazan crystals produced by the cells were solubilized and measured as described (Mosmann, 1983). 2. Identification of Cellular Kinases Involved in HCV Entry Using a Genome-Wide RNAi Kinase HCV Entry Screen
# [11] = system: Huh7.5.1 cells; assay: MTT cell viability, Huh7.5.1 cells; assay type: cell-based, human; details: 10 μM, FIG. 7D
# Method: as §1
# [12] = achievable plasma concentrations; Hidalgo and Bloedow, 2003; cited from earlier work
compound,measurement,setting,value
Cc1nc(Nc2ncc(C(=O)Nc3c(C)cccc3Cl)s2)cc(N2CCN(CCO)CC2)n1 [Dasatinib],HCVpp entry in primary human hepatocytes,[1],markedly inhibited
same,Entry of patient-derived HCVpp in primary human hepatocytes,[2],markedly inhibited
same,HCV replication,[3],did not inhibit
same,IC50,[4],2000 nM
N#Cc1cnc2cnc(NCc3cccnc3)cc2c1Nc1ccc(F)c(Cl)c1 [TpI2 kinase inhibitor],Entry of patient-derived HCVpp in Huh7.5 cells,[5],did not result in a reproducible inhibition
CS(=O)(=O)CCNCc1ccc(-c2ccc3ncnc(Nc4ccc(OCc5cccc(F)c5)c(Cl)c4)c3c2)o1 [Lapatinib],HCVcc infection,[6],markedly inhibit
same,HCVpp entry,[7],markedly inhibit
CN1CC[C@H](c2c(O)cc(O)c3c(=O)cc(-c4ccccc4Cl)oc23)[C@H](O)C1 [Flavopiridol],Cytotoxic effects,[8],absence of any detectable cytotoxic effects
same,HCVpp entry in primary human hepatocytes,[9],markedly inhibited
COc1cc2ncnc(Nc3ccc(F)c(Cl)c3)c2cc1OCCCN1CCOCC1 [Gefitinib],HCVcc infection,[6],markedly inhibit
same,HCVpp entry,[7],markedly inhibit
c1cc(-c2cnn3cc(-c4ccc(OCCN5CCCCC5)cc4)cnc23)ccn1 [Dorsomorphin],Cell viability (MTT assay),[10],not diminished
same,Cell viability (MTT assay),[11],slightly reduced
C#Cc1cccc(Nc2ncnc3cc(OCCOC)c(OCCOC)cc23)c1 [Erlotinib],HCVpp entry in primary human hepatocytes,[1],dose-dependently inhibited
same,mean plasma concentrations,[12],~4 µM
same,Entry of patient-derived HCVpp in primary human hepatocytes,[2],markedly inhibited
same,HCVcc infection,[6],markedly inhibit
same,HCV replication,[3],without markedly modulating replication; also recorded: did not inhibit
same,HCVcc infection,"[4]; HCVcc Luc-Jc1, inhibitor added 1 h prior to infection, dose-dependent, FIG. 9A",dose-dependently inhibited; also recorded: markedly inhibited
same,IC50,[4]; Hepatocyte,~500 nM
same,Inhibitory effect on HCVcc infection by detection of viral RNA using RT-PCR,[4]; data not shown,confirmed
same,Entry of patient-derived HCVpp in Huh7.5 cells,[5],markedly inhibited; also recorded: more potent than Dasatinib
same,HCVpp entry,[7],markedly inhibit
COC[C@H]1OC(=O)c2coc3c2[C@@]1(C)C1=C(C3=O)[C@@H]2CCC(=O)[C@@]2(C)C[C@H]1OC(C)=O [Wortmannin],HCVpp entry in primary human hepatocytes,[1],did not have any effect
same,Entry of patient-derived HCVpp in Huh7.5 cells,[5],did not inhibit

# Source: US8759010B2, “Host cell kinases as targets for antiviral therapies against HCV infection” (INSERM (Institut National de la Sante et de la Recherche …, priority 2008, dated 2014)
